Structures can show the parent of a compound that is named as a salt. Each block holds one compound with its values, some of them ahead of it.
Experiments:
[1] = Comparative kinetic solubility in phosphate buffer pH 7.4 (HPLC-UV); format: physicochemical; settings: aqueous buffer, kinetic from dmso stock, nominal 250 μM in 50 mM phosphate buffer pH 7.4, agitated 1 hour, filtered
Experimental: Samples of the compound of Example 1 and (2R)-2-[(2-amino-5-{[(1S)-1-phenylethyl]sulfanyl}-[1,3] thiazolo[4,5-d]pyrimidin-7-yl)amino]-4-methylpentan-1-ol. HCl (compound A) were diluted to a nominal concentration of 250 μM in 50 mM phosphate buffer pH 7.4 then agitated for 1 hour and filtered.
Standard solutions of the two compounds at concentrations of 25 and 250 μM in 50:50 acetontrile:water were prepared.
The solutions were then analysed by reverse phase HPLC with UV-detection, and solubility was determined by the ratio of the sample peaks to the standard curve.

[2] = Plasma concentration (AUC of plasma Compound A) in mice after intravenous and peroral administration; format: in vivo; settings: blood 0.083-24 hours; for AUC: male, CD1, mouse, plasma
Experimental: (§1) A peroral dosing solution of Compound A (12 mg/mL) in 30% HP-β-CD in 10 mM Na2PO4 and an intravenous dosing solution of Compound A (2.5 mg/mL) in 30% HP-β-CD in 10 mM Na2PO4 in DPBS were prepared. The intravenous dosing solution was administered to male CD1 mice (weight 28-30 g) via intravenous injection (25 mg/kg) and the peroral dosing solution was administered to male CD1 mice (weight 28-30 g) via oral gavage (120 mg/kg).
Blood was collected from the animals at time points of 0.083, 0.25, 0.5, 1, 2, 4, 6, 12 and 24 hours and analysed for blood plasma concentration, and the data generated were used to calculate the area under the curve (AUC) values shown in Table 5.
as §1, with “Compound A HCl salt (12 mg/mL)” for “Compound A (12 mg/mL)”, “Compound A HCl salt (2.5 mg/mL)” for “Compound A (2.5 mg/mL)”, “oral gavage (125 mg/kg).” for “oral gavage (120 mg/kg).”
A peroral dosing solution of Example 1 disodium salt in water (15.4 mg/mL) at a pH of 7.18 and an intravenous dosing solution of Example 1 disodium salt in water (6.4 mg/mL) at a pH of 7.11 were prepared by dissolving Example 1 diammonium salt in water and adjusting the pH with 0.1M NaOH solution. The intravenous dosing solution was administered to male CD1 mice (weight 24-25 g) via tail injection (32 mg/kg) and the peroral dosing solution was administered to male CD1 mice (weight 24-25 g) via oral gavage (154 mg/kg).

[3] = Comparative stability of solutions on long-term storage at room temperature (HPLC-MS); format: physicochemical; settings: for Degradation products observed on storage in aqueous solution: HPLC-MS, storage at room temperature; for Aqueous solubility (in words): dissolving in pure water / need for co-solvents; for Stability of aqueous formulations to storage (in words): room temperature; for Compound A % area: water + 20% MeOH, 1.75 mg/mL; for Example 1 % area: aqueous solution (MilliQ water) 1.7 mg/mL
[4] = Further stability studies: aqueous solutions stored 60 days at room temperature and/or 40° C. (HPLC-MS); format: physicochemical
Experimental: Aqueous solutions of several of the example compounds were prepared at concentrations of 1.2 mg/mL (10 mg/mL for Example 1 (no salt)) according to the following procedures. • i) Examples 1 b, 2h and 3 (diammonium salts) were dissolved in pure water. • ii) Examples 1d (diammonium salt) and 1n (monoammonium salt) were suspended in water and Na2HPO3 was added until all of the compound was in solution. • iii) Examples 1q, 4f an 4g (no salts) were dissolved in water with added DMSO (100 μL) and (2-hydroxypropyl)-β-cyclodextrin was added until all of the compound was in solution.
The stability of the compounds to long-term storage in aqueous solution at room temperature and/or 40° C. was then assessed by analysis of the solution by HPLC-MS after 60 days.

[5] = aqueous solution 1.2 mg/mL, 40° C., 1d, 1n with Na2HPO3, 1q, 4f, 4g with DMSO and (2-hydroxypropyl)-β-cyclodextrin
[6] = aqueous solution 1.2 mg/mL, room temperature, 1d, 1n with Na2HPO3, 1q, 4f, 4g with DMSO and (2-hydroxypropyl)-β-cyclodextrin

Structure (SMILES): CC(C)C[C@H](CO)Nc1nc(S[C@@H](C)c2ccccc2)nc2nc(N)sc12 [Compound A •HCl, (2R)-2-[(2-amino-5-{[(1S)-1-phenylethyl]sulfanyl}-[1,3]thiazolo[4,5-d]pyrimidin-7-yl)amino]-4-methylpentan-1-ol. HCl]
solubility at 1 h [1]: 5 µM | AUC ([2]; iv, 25 mg/kg): 50.1 µM·h | AUC ([2]; po, 125 mg/kg, PO (oral gavage), 125 mg/kg (284 mol/kg)): 170 µM·h

Structure (SMILES): CC(C)C[C@H](CO)Nc1nc(S[C@@H](C)c2ccccc2)nc2nc(N)sc12 [Compound A, (2R)-2-[(2-amino-5-{[(1S)-1-phenylethyl]thio}[1,3]thiazolo[4,5-d]pyrimidin-7-yl)amino]-4-methylpentan-1-ol]
Compound A remaining % ([3]; 1.18 mg/mL in water, polyethylene glycol 24% (v/v), RT, 0 days): 98.5% | Compound A remaining % ([3]; 1.18 mg/mL in water, polyethylene glycol 24% (v/v), RT, 3 days): 97.7% | Compound A remaining % ([3]; 1.18 mg/mL in water, polyethylene glycol 24% (v/v), RT, 56 days): 28% | Compound A remaining % ([3]; 1.22 mg/mL in water, polyethylene glycol 24% (v/v), RT, 0 days): 98.6% | Compound A remaining % ([3]; 1.22 mg/mL in water, polyethylene glycol 24% (v/v), RT, 3 days): 98.0% | Compound A remaining % ([3]; 1.22 mg/mL in water, polyethylene glycol 24% (v/v), RT, 56 days): 31% | Compound A remaining % ([3]; 2.25 mg/mL in water, polyethylene glycol 26% (v/v), RT, 0 days): 98.5% | Compound A remaining % ([3]; 2.25 mg/mL in water, polyethylene glycol 26% (v/v), RT, 3 days): 97.7% | Compound A remaining % ([3]; 2.25 mg/mL in water, polyethylene glycol 26% (v/v), RT, 56 days): 35% | Compound A remaining % ([3]; 3.2 mg/mL in water, polyethylene glycol 28% (v/v), ethanol 0, RT, 0 days): 98.4% | Compound A remaining % ([3]; 3.2 mg/mL in water, polyethylene glycol 28% (v/v), ethanol 0, RT, 14 days): 88.1% | Compound A remaining % ([3]; 3.2 mg/mL in water, polyethylene glycol 28% (v/v), ethanol 0, RT, 70 days): 60.7% | Compound A remaining % ([3]; 4.0 mg/mL in water, polyethylene glycol 25% (v/v), ethanol 3% (v/v), RT, 0 days): 98.4% | Compound A remaining % ([3]; 4.0 mg/mL in water, polyethylene glycol 25% (v/v), ethanol 3% (v/v), RT, 14 days): 92.3% | Compound A remaining % ([3]; 4.0 mg/mL in water, polyethylene glycol 25% (v/v), ethanol 3% (v/v), RT, 70 days): 75.1% | Degradation products observed on storage in aqueous solution [3]: the debenzylated thiol and the corresponding disulfide together with phenyl ethanol and minor amounts of styrene | Aqueous solubility (in words) [3]: not possible to dissolve | Stability of aqueous formulations to storage (in words) [3]: unstable to storage at room temperature | Compound A % area ([3]; RT, 0 days): 98.4% area | Compound A % area ([3]; RT, 4 days): 96.7% area | Plasma Compound A AUC ([2]; male CD1 mice, IV, 25 mg/kg): 45.92 µM·h | AUC ([2]; po, 120 mg/kg, PO (oral gavage), 120 mg/kg (297 mol/kg)): 92.6 µM·h

Structure (SMILES): CC(C)C[C@H](COP(=O)(O)O)Nc1nc(S[C@@H](C)c2ccccc2)nc2nc(N)sc12 [Example 1, (2R)-2-[(2-Amino-5-{[(1S)-1-phenylethyl]sulfanyl}[1,3]thiazolo[4,5-d]pyrimidin-7-yl)amino]-4-methylpentyl dihydrogen phosphate]
solubility at 1 h [1]: 118 µM | Degradation products observed on storage in aqueous solution [3]: not observed | Example 1 % area ([3]; RT, 0 days of storage): 99.6 % area | Example 1 % area ([3]; RT, 4 days of storage): 99.6 % area | Example 1 % area ([3]; RT, 13 days of storage): 99.6 % area | Example 1 % area ([3]; RT, 20 days of storage): 99.6 % area | Example 1 % area ([3]; RT, 40 days of storage): 99.6 % area | Aqueous solubility (in words) [3]: improved aqueous solubility (no co-solvents required) | Stability of aqueous formulations to storage (in words) [3]: unexpectedly pronounced stability over Compound A | % Area by HPLC (60 days) ([4]; Example 1 (no salt), aqueous solution 10 mg/mL, 40° C.): 100 % Area

Structure (SMILES): CC(C)C[C@H](COP(=O)(O)O)Nc1nc(S[C@@H](C)c2ccc(Cl)cn2)nc2[nH]c(=O)sc12 [Example 3, (2R)-2-[(5-{[(1S)-1-(5-chloropyridin-2-yl)ethyl]sulfanyl}-2-oxo-2,3-dihydro[1,3]thiazolo[4,5-d]pyrimidin-7-yl)amino]-4-methylpentyl dihydrogen phosphate]
% Area by HPLC (60 days) [4, 5]: 100 % Area | % Area by HPLC (60 days) [4, 6]: 99.6 % Area

The next lines start with the values.

% Area by HPLC (60 days) [4, 5]: 100 % Area | % Area by HPLC (60 days) [4, 6]: 100 % Area
Structure (SMILES): CC(C)C[C@H](COP(=O)(O)O)Nc1nc(SC(C)c2ccccc2F)nc2nc(N)sc12 (stereo partly drawn) [Example 1b, (2R)-2-[(2-Amino-5-{[1-(2-fluorophenyl)ethyl]sulfanyl}[1,3]thiazolo[4,5-d]pyrimidin-7-yl)amino]-4-methylpentyl dihydrogen phosphate]

% Area by HPLC (60 days) [4, 5]: 99.7 % Area | % Area by HPLC (60 days) [4, 6]: 98.0 % Area
Structure (SMILES): CC(C)C[C@H](COP(=O)(O)O)Nc1nc(SC(C)c2ccc(Cl)cn2)nc2nc(N)sc12 (stereo partly drawn) [Example 1d, (2R)-2-[(2-Amino-5-{[1-(5-chloropyridin-2-yl)ethyl]sulfanyl}[1,3]thiazolo[4,5-d]pyrimidin-7-yl)amino]-4-methylpentyl dihydrogen phosphate]

% Area by HPLC (60 days) [4, 5]: 100 % Area | % Area by HPLC (60 days) [4, 6]: 98.2 % Area
Structure (SMILES): CC(C)C[C@H](COP(=O)(O)OC(C)C)Nc1nc(S[C@@H](C)c2ccccc2)nc2nc(N)sc12 [Example 1n, (2R)-2-[(2-Amino-5-{[(1S)-1-phenylethyl]sulfanyl}[1,3]thiazolo[4,5-d]pyrimidin-7-yl)amino]-4-methylpentyl 1-methylethyl hydrogen phosphate]

% Area by HPLC (60 days) [4, 5]: 82.2 % Area | % Area by HPLC (60 days) [4, 6]: 92.3 % Area
Structure (SMILES): CC(C)C[C@H](CO)Nc1nc(S[C@@H](C)c2ccc(Cl)cn2)nc2c1sc(=O)n2COP(=O)(O)O [Example 2h, [5-{[(1S)-1-(5-Chloropyridin-2-yl)ethyl]sulfanyl}-7-{[(1R)-1-(hydroxymethyl)-3-methylbutyl]amino}-2-oxo[1,3]thiazolo[4,5-d]pyrimidin-3(2H)-yl]methyl dihydrogen phosphate]
